Experimental findings from ChEMBL document CHEMBL5331073, “Discovery of novel 7,7-dimethyl-6,7-dihydro-5H-pyrrolo[3,4-d]pyrimidines as ATR inhibitors based on structure-based drug design” (Eur J Med Chem, 2023) are described below.

What all share (assay type): functional, cell-based
The subject of assay [1] is OVCAR-3. The assay is described as follows: Antiproliferative activity against ATM-deficient human OVCAR-3 cells assessed as reduction in cell viability incubated for 3 days by MTT assay. The conditions noted are these: OVCAR-3, 72 h.
Assay [2] has as its system LoVo. The assay is described as follows: Antiproliferative activity against ATM-deficient human LoVo cells assessed as reduction in cell proliferation incubated for 3 days by MTT assay. The conditions noted are these: 72 h. (In general: Formazan colour is commonly taken as a measure of viable cells.)
The subject of assay [3] is HT-29. The experiment in a line: Antiproliferative activity against ATM-proficient human HT-29 cells assessed as reduction in cell proliferation incubated for 3 days by MTT assay. The conditions noted are these: HT-29, 72 h.
Assay [4] relates to SW-620. The assay is described as follows: Antiproliferative activity against ATM-deficient human SW620 cells assessed as reduction in cell viability incubated for 3 days by MTT assay. The conditions noted are these: SW-620, 72 h.
Assay [5] concerns HT-29. The experiment in a line: Antiproliferative activity against ATM-proficient human HT-29 cells assessed as reduction in cell viability incubated for 3 days in presence of AZD-1390 by MTT assay. The note with it: HT-29, 72 h.
Assay [6] concerns MCF7. The experiment in a line: Synergistic antiproliferative activity against human MCF7 cells assessed as reduction in cell viability incubated for 3 days in presence of olaparib by MTT assay. The note with it: MCF7, 72 h.
Assay [7] concerns MCF7. The assay is described as follows: Antiproliferative activity against human MCF7 cells assessed as reduction in cell viability incubated for 3 days by MTT assay. The conditions noted are these: MCF7, 72 h.
The test system of assay [8] is MDA-MB-231. The assay is described as follows: Antiproliferative activity against human MDA-MB-231 cells assessed as reduction in cell viability incubated for 3 days by MTT assay. The note with it: MDA-MB-231, 72 h.
Assay [9] concerns HCT-116. The experiment in a line: Synergistic antiproliferative activity against ATM-proficient human HCT-116 cells assessed as reduction in cell viability incubated for 3 days in presence of oxaliplatin by MTT assay. The conditions noted are these: HCT-116, 72 h.
The test system of assay [10] is HCT-116. The assay is described as follows: Synergistic antiproliferative activity against ATM-proficient human HCT-116 cells assessed as reduction in cell viability incubated for 3 days in presence of cisplatin by MTT assay. The note with it: HCT-116, 72 h.
The subject of assay [11] is A549. The experiment in a line: Antiproliferative activity against ATM-proficient human A549 cells assessed as reduction in cell viability incubated for 3 days in presence of AZD-1390 by MTT assay. The conditions noted are these: A549, 72 h.
The subject of assay [12] is A549. The experiment in a line: Antiproliferative activity against ATM-proficient human A549 cells assessed as reduction in cell viability incubated for 3 days by MTT assay. The note with it: A549, 72 h.
Assay [13] concerns A549. The experiment in a line: Synergistic antiproliferative activity against ATM-proficient human A549 cells assessed as reduction in cell viability incubated for 3 days in presence of oxaliplatin by MTT assay. The conditions noted are these: A549, 72 h.
The subject of assay [14] is A549. The assay is described as follows: Synergistic antiproliferative activity against ATM-proficient human A549 cells assessed as reduction in cell viability incubated for 3 days in presence of cisplatin by MTT assay. The note with it: A549, 72 h.
Assay [15] relates to HCT-116. The experiment in a line: Antiproliferative activity against ATM-proficient human HCT-116 cells assessed as reduction in cell viability incubated for 3 days by MTT assay. The conditions noted are these: HCT-116, 72 h.
Assay [16] relates to HCT-116. The assay is described as follows: Antiproliferative activity against ATM-proficient human HCT-116 cells assessed as reduction in cell viability incubated for 3 days in presence of AZD-1390 by MTT assay. The note with it: HCT-116, 72 h.
Assay [17] concerns MDA-MB-231. The experiment in a line: Synergistic antiproliferative activity against human MDA-MB-231 cells assessed as reduction in cell viability incubated for 3 days in presence of olaparib by MTT assay. The note with it: MDA-MB-231, 72 h.

For `C[C@@H]1COCCN1c1cc(C2(S(C)(=O)=O)CC2)nc(-c2cccc3[nH]ccc23)n1`, the IC50 was determined as 563 nM in assay [1]; 231 nM in assay [2]; 644 nM in assay [3]; 727 nM in assay [4]; 72 nM in assay [5]; 1220 nM in [6]. In addition, the 50% inhibitory concentration (IC50) in assay [7] turned out to be 2310 nM; in assay [8], 2970 nM; in assay [9], 92 nM; in [10], 137 nM; in assay [11] it was 495 nM; in assay [12], 734 nM. Further, the IC50 came to 333 nM in assay [13]; 481 nM in assay [14]; 260 nM in [15]; 151 nM in assay [16]; 254 nM in assay [17].

The IC50 is the midpoint of a concentration-inhibition curve.
